Measured values taken from ChEMBL document CHEMBL3763064, “Discovery of silyl proline containing HCV NS5A inhibitors with pan-genotype activity: SAR development” (Bioorg Med Chem Lett, 2016).

Assays:
Assay type in all cases: functional, organism-based, Hepacivirus hominis
Hepatitis C virus [1] = assay: Antiviral activity against HCV genotype 1b by replicon assay
Hepatitis C virus [2] = assay: Antiviral activity against HCV genotype 2a by replicon assay
Hepatitis C virus [3] = assay: Antiviral activity against HCV genotype 3a by replicon assay
Hepatitis C virus [4] = assay: Antiviral activity against HCV genotype 1a expressing NS5A Y93H mutant by replicon assay; conditions: subtype 1a
Hepatitis C virus [5] = assay: Antiviral activity against HCV genotype 1a by replicon assay; conditions: subtype 1a

SMILES | EC50 (Hepatitis C virus [1]) [nM] | EC50 (Hepatitis C virus [2]) [nM] | EC50 (Hepatitis C virus [3]) [nM] | EC50 (Hepatitis C virus [4]) [nM] | EC50 (Hepatitis C virus [5]) [nM]
COC(=O)N[C@H](C(=O)N1CCC[C@H]1c1ncc(-c2ccc(-c3ccc(-c4cnc([C@@H]5CCCN5C(=O)[C@@H](NC(=O)OC)C(C)C)[nH]4)cc3)cc2)[nH]1)C(C)C | 0.01 | 0.04 | 0.7 | 198 | 
COC(=O)N[C@H](C(=O)N1C[Si](C)(C)C[C@H]1c1ncc(-c2ccc(-c3ccc4c(ccc5nc([C@@H]6CCCN6C(=O)[C@@H](NC(=O)OC)C(C)C)[nH]c54)c3)nc2)[nH]1)C(C)C | 0.014 |  |  | 185 | 0.04
COC(=O)N[C@H](C(=O)N1CCC[C@H]1c1ncc(-c2ccc(-c3ccc4c(ccc5nc([C@@H]6C[Si](C)(C)CN6C(=O)[C@@H](NC(=O)OC)C6CCCC6)[nH]c54)c3)cc2)[nH]1)C(C)C |  |  |  | 471 | 0.09
CCC(C)[C@H](NC(=O)OC)C(=O)N1CCC[C@H]1c1ncc(-c2ccc(-c3ccc4c(ccc5nc([C@@H]6C[Si](C)(C)CN6C(=O)[C@@H](NC(=O)OC)C(C)C)[nH]c54)c3)cc2)[nH]1 (some centres not stated) |  |  |  | 640 | 0.15
COC(=O)N[C@H](C(=O)N1C[Si](C)(C)C[C@H]1c1ncc(-c2ccc(-c3cc4c(ccc5nc([C@@H]6CCCN6C(=O)[C@@H](NC(=O)OC)C(C)C)[nH]c54)s3)cc2)[nH]1)C(C)C | 0.006 |  |  | 2330 | > 1
COC(=O)N[C@H](C(=O)N1C[Si](C)(C)C[C@H]1c1ncc(-c2ccc(-c3ccc4c(ccc5nc([C@@H]6CCCN6C(=O)[C@@H](NC(=O)OC)C(C)C)[nH]c54)c3)cc2OC)[nH]1)C(C)C |  |  |  | 497 | 0.27
CCC(C)[C@H](NC(=O)OC)C(=O)N1C[Si](C)(C)C[C@H]1c1nc2ccc3cc(-c4ccc(-c5cnc([C@@H]6CCCN6C(=O)[C@@H](NC(=O)OC)C(C)C)[nH]5)cc4)ccc3c2[nH]1 (some centres not stated) |  |  |  | 279 | 0.08
COC(=O)N[C@H](C(=O)N1C[Si](C)(C)C[C@H]1c1nc2ccc3cc(-c4ccc(-c5cnc([C@@H]6CCCN6C(=O)[C@@H](NC(=O)OC)C(C)OC)[nH]5)cc4)ccc3c2[nH]1)C(C)C (some centres not stated) |  |  |  | 225 | 0.07
COC(=O)N[C@H](C(=O)N1CCC[C@H]1c1ncc(-c2ccc(-c3cc4cc(-c5cnc([C@@H]6C[Si](C)(C)CN6C(=O)[C@@H](NC(=O)OC)C(C)C)[nH]5)ccc4o3)cc2)[nH]1)C(C)C | 0.003 | 2.4 | 15 | 153 | 0.04
COC(=O)N[C@H](C(=O)N1C[Si](C)(C)C[C@H]1c1nc2ccc3cc(-c4ccc(-c5cnc([C@@H]6[C@@H]7C[C@@H](C(F)C7F)N6C(=O)[C@@H](NC(=O)OC)C(C)C)[nH]5)cc4)ccc3c2[nH]1)C(C)C (some centres not stated) | 0.002 |  |  | 204 | 0.04
COC(=O)N[C@H](C(=O)N1C[C@H](O)C[C@H]1c1ncc(-c2ccc(-c3ccc4c(ccc5nc([C@@H]6C[Si](C)(C)CN6C(=O)[C@@H](NC(=O)OC)C(C)C)[nH]c54)c3)cc2)[nH]1)C(C)C | 0.005 |  |  | 44 | 0.06
COC(=O)N[C@H](C(=O)N1CC(C)(C)C[C@H]1c1ncc(-c2ccc(-c3ccc4c(ccc5nc([C@@H]6C[Si](C)(C)CN6C(=O)[C@@H](NC(=O)OC)C(C)C)[nH]c54)c3)cc2)[nH]1)C(C)C | 0.003 |  |  | 90 | 0.015
COC(=O)N[C@H](C(=O)N1C[Si](C)(C)C[C@H]1c1nc2ccc3cc(-c4ccc(-c5cnc([C@@H]6[C@H]7CC[C@H](C7)N6C(=O)[C@@H](NC(=O)OC)C(C)C)[nH]5)cc4)ccc3c2[nH]1)C(C)C | 0.01 |  |  | 131 | 0.09
COC(=O)N[C@H](C(=O)N1C[Si](C)(C)C[C@H]1c1nc2ccc3cc(-c4ccc(-c5cnc([C@@H]6CCCN6C(=O)[C@@H](NC(=O)OC)C6CCCC6)[nH]5)cc4)ccc3c2[nH]1)C(C)C |  |  |  | 590 | 0.2
COC(=O)N[C@H](C(=O)N1C[C@H](F)C[C@H]1c1ncc(-c2ccc(-c3ccc4c(ccc5nc([C@@H]6C[Si](C)(C)CN6C(=O)[C@@H](NC(=O)OC)C(C)C)[nH]c54)c3)cc2)[nH]1)C(C)C | 0.006 |  |  | 27 | 0.07
COC(=O)N[C@H](C(=O)N1CCC[C@H]1c1ncc(-c2ccc(-c3ccc(-c4cnc([C@@H]5C[Si](C)(C)CN5C(=O)[C@@H](NC(=O)OC)C(C)C)[nH]4)cc3)cc2)[nH]1)C(C)C | 0.003 | 0.04 | 0.5 | 92 | 0.04

SMILES | EC50 (Hepatitis C virus [1]) [nM] | EC50 (Hepatitis C virus [2]) [nM] | EC50 (Hepatitis C virus [3]) [nM] | EC50 (Hepatitis C virus [4]) [nM] | EC50 (Hepatitis C virus [5]) [nM]
COC(=O)N[C@H](C(=O)N1C[Si](C)(C)C[C@H]1c1nc2ccc3cc(-c4ccc(-c5cnc([C@@H]6CCCN6C(=O)[C@@H](NC(=O)OC)C6CC6)[nH]5)cc4)ccc3c2[nH]1)C(C)C |  |  |  | 260 | 0.08
COC(=O)N[C@H](C(=O)N1C[Si](C)(C)C[C@H]1c1nc2ccc3cc(-c4ccc(-c5cnc([C@@H]6CCCN6C(=O)[C@@H](NC(=O)OC)C(C)O)[nH]5)cc4)ccc3c2[nH]1)C(C)C (some centres not stated) |  |  |  | 579 | 0.14
COC(=O)N[C@H](C(=O)N1CCC[C@H]1c1ncc(-c2ccc(-c3ccc4c(ccc5nc([C@@H]6C[Si](C)(C)CN6C(=O)[C@@H](NC(=O)OC)C(C)OC)[nH]c54)c3)cc2)[nH]1)C(C)C (some centres not stated) |  |  |  | 275 | 0.03
COC(=O)N[C@H](C(=O)N1C[Si]2(CCCC2)C[C@H]1c1ncc(-c2ccc(-c3ccc4c(ccc5nc([C@@H]6CCCN6C(=O)[C@@H](NC(=O)OC)C(C)C)[nH]c54)c3)cc2)[nH]1)C(C)C |  | 0.01 | 0.2 | 350 | 0.06
COC(=O)N[C@H](C(=O)N1C[Si](C)(C)C[C@H]1c1ncc(-c2ccc(-c3ccc4nc([C@@H]5CCCN5C(=O)[C@@H](NC(=O)OC)C(C)C)[nH]c4c3)cc2)[nH]1)C(C)C | 0.004 |  |  | 9920 | > 1
COC(=O)N[C@H](C(=O)N1C[Si](C)(C)C[C@H]1c1ncc(-c2ccc(-c3ccc4c(ccc5nc([C@@H]6C[C@@H](F)CN6C(=O)[C@@H](NC(=O)OC)C(C)C)[nH]c54)c3)cc2)[nH]1)C(C)C | 0.003 |  |  | 10 | 0.02
COC(=O)N[C@H](C(=O)N1C[Si](C)(C)C[C@H]1c1ncc(-c2ccc(-c3ccc4c(ccc5nc([C@@H]6CCCN6C(=O)[C@@H](NC(=O)OC)C(C)C)[nH]c54)c3)cc2F)[nH]1)C(C)C |  |  |  | 329 | 0.05
COC(=O)N[C@H](C(=O)N1C[Si](C)(C)C[C@H]1c1ncc(-c2ccc(-c3ccc4c(ccc5nc([C@@H]6CCCN6C(=O)[C@@H](NC(=O)OC)C(C)C)[nH]c54)c3)cc2C2CC2)[nH]1)C(C)C |  |  |  | 1600 | 0.43
COC(=O)N[C@H](C(=O)N1C[Si](C)(C)C[C@H]1c1ncc(-c2ccc(-c3ccc(-c4cnc([C@@H]5C[Si](C)(C)CN5C(=O)[C@@H](NC(=O)OC)C(C)C)[nH]4)cc3)cc2)[nH]1)C(C)C | 0.01 | 0.25 | 4.1 | > 1000 | 0.2
COC(=O)N[C@H](C(=O)N1C[Si](C)(C)C[C@H]1c1ncc(-c2ccc(-c3ccc4c(ccc5nc([C@@H]6CCCN6C(=O)[C@@H](NC(=O)OC)C(C)C)[nH]c54)c3)cc2-c2cccs2)[nH]1)C(C)C |  |  |  | 1150 | 0.5
COC(=O)N[C@H](C(=O)N1CCC(F)(F)C[C@H]1c1ncc(-c2ccc(-c3ccc4c(ccc5nc([C@@H]6C[Si](C)(C)CN6C(=O)[C@@H](NC(=O)OC)C(C)C)[nH]c54)c3)cc2)[nH]1)C(C)C |  |  |  | 728 | 0.1
COC(=O)N[C@H](C(=O)N1C[Si](C)(C)C[C@H]1c1nc2ccc3cc(-c4ccc(-c5cnc([C@@H]6C[C@H]7C[C@H]7N6C(=O)[C@@H](NC(=O)OC)C(C)C)[nH]5)cc4)ccc3c2[nH]1)C(C)C |  |  |  | 30 | 
COC(=O)N[C@H](C(=O)N1CCC[C@H]1c1ncc(-c2ccc(-c3ccc4c(ccc5nc([C@@H]6C[Si](C)(C)CN6C(=O)[C@@H](NC(=O)OC)C6CC6)[nH]c54)c3)cc2)[nH]1)C(C)C |  |  |  | 87 | 0.05
COC(=O)N[C@H](C(=O)N1CCC[C@H]1c1ncc(-c2ccc(-c3ccc4c(ccc5nc([C@@H]6C[Si](C)(C)CN6C(=O)[C@@H](NC(=O)OC)C(C)O)[nH]c54)c3)cc2)[nH]1)C(C)C (some centres not stated) |  |  |  | > 1000 | 0.6
COC(=O)N[C@H](C(=O)N1C[Si](C)(C)C[C@H]1c1ncc(-c2ccc(-c3ccc4c(ccc5nc([C@@H]6CCCN6C(=O)[C@@H](NC(=O)OC)C(C)C)[nH]c54)c3)s2)[nH]1)C(C)C | 0.004 |  |  | 921 | 0.14
COC(=O)N[C@H](C(=O)N1CCS(=O)(=O)C[C@H]1c1ncc(-c2ccc(-c3ccc4c(ccc5nc([C@@H]6C[Si](C)(C)CN6C(=O)[C@@H](NC(=O)OC)C(C)C)[nH]c54)c3)cc2)[nH]1)C(C)C | 0.01 |  |  | 380 | 0.2
